Results as given in article PMC12102759 (Protein Science : A Publication of the Protein Society, 2025).

Test system: PABPC1 PABC
Format: binding, human
Settings: DMS-BM library, bait PABPC1 PABC, row aa = residue at this position; for DMS-derived PSSM value (averaged), position T1: T = wild type; for DMS-derived PSSM value, position R12: R = wild type
[1] = prey ATXN2, TLNPNAKEFNPRSF(averaged) over the two overlapping peptides
[2] = prey ATXN2, TLNPNAKEFNPRSF(averaged) over the two overlapping peptides, N = wild type
[3] = prey ATXN2, peptide TLNPNAKEFNPRSFSQ, N = wild type
[4] = prey ATXN2, peptide TLNPNAKEFNPRSFSQ, S = wild type
[5] = prey ATXN2, peptide TLNPNAKEFNPRSFSQ
[6] = prey ATXN2, peptide TLNPNAKEFNPRSFSQ, P = wild type
[7] = prey ATXN2, peptide KSTLNPNAKEFNPRSF, K = wild type
[8] = prey ATXN2, peptide TLNPNAKEFNPRSFSQ, K = wild type
[9] = prey ATXN2, peptide TLNPNAKEFNPRSFSQ, F = wild type
[10] = prey ATXN2, TLNPNAKEFNPRSF(averaged) over the two overlapping peptides, P = wild type
[11] = prey ATXN2, peptide KSTLNPNAKEFNPRSF, N = wild type
[12] = prey ATXN2, peptide KSTLNPNAKEFNPRSF, P = wild type
[13] = prey ATXN2, peptide KSTLNPNAKEFNPRSF, F = wild type

TLNPNAKEFNPRSFSQ L2G (TGNPNAKEFNPRSFSQ) was tested, and the “DMS-derived PSSM value, position L2” value (prey ATXN2, peptide TLNPNAKEFNPRSFSQ, L = wild type) was 0.
“TLNPNAKEFNPRSF(averaged) T1M (MLNPNAKEFNPRSF)” was tested, and the “DMS-derived PSSM value (averaged), position T1” value [1] was 0.04356.
“TLNPNAKEFNPRSF(averaged) N3D (TLDPNAKEFNPRSF)” was tested, and the “DMS-derived PSSM value (averaged), position N3” value [2] was 0.0826.
For “TLNPNAKEFNPRSF(averaged) N10G (TLNPNAKEFGPRSF)”, the “DMS-derived PSSM value (averaged), position N10” value [2] was 0.02059.
“TLNPNAKEFNPRSFSQ N10K (TLNPNAKEFKPRSFSQ)” was tested, and the “DMS-derived PSSM value, position N10” value [3] was 0.01052.
With “TLNPNAKEFNPRSFSQ S13F (TLNPNAKEFNPRFFSQ)” the “DMS-derived PSSM value, position S13” value [4] was 0.004247.
In the case of KSTLNPNAKEFNPRSF A8H (KSTLNPNHKEFNPRSF), the “DMS-derived PSSM value, position A8” value (prey ATXN2, peptide KSTLNPNAKEFNPRSF, A = wild type) is reported as 0.
In the case of “TLNPNAKEFNPRSFSQ R12M (TLNPNAKEFNPMSFSQ)”, the “DMS-derived PSSM value, position R12” value [5] is reported as 0.04074.
For “TLNPNAKEFNPRSFSQ P11K (TLNPNAKEFNKRSFSQ)”, the “DMS-derived PSSM value, position P11” value [6] was 0.
KSTLNPNAKEFNPRSF K9D (KSTLNPNADEFNPRSF) was tested, and the “DMS-derived PSSM value, position K9” value [7] was 0.007291.
In the case of TLNPNAKEFNPRSFSQ K7F (TLNPNAFEFNPRSFSQ), the “DMS-derived PSSM value, position K7” value [8] is reported as 0.058.
For “TLNPNAKEFNPRSF(averaged) N5Q (TLNPQAKEFNPRSF)”, the “DMS-derived PSSM value (averaged), position N5” value [2] was 0.02375.
In the case of TLNPNAKEFNPRSFSQ F9I (TLNPNAKEINPRSFSQ), the “DMS-derived PSSM value, position F9” value [9] is reported as 0.
In the case of “TLNPNAKEFNPRSF(averaged) P11K (TLNPNAKEFNKRSF)”, the “DMS-derived PSSM value (averaged), position P11” value [10] is reported as 0.
In the case of TLNPNAKEFNPRSFSQ K7Q (TLNPNAQEFNPRSFSQ), the “DMS-derived PSSM value, position K7” value [8] is reported as 0.008943.
With TLNPNAKEFNPRSFSQ F9Q (TLNPNAKEQNPRSFSQ) the “DMS-derived PSSM value, position F9” value [9] was 0.
For “TLNPNAKEFNPRSFSQ S15V (TLNPNAKEFNPRSFVQ)”, the “DMS-derived PSSM value, position S15” value [4] was 0.009732.
For “TLNPNAKEFNPRSF(averaged) S13F (TLNPNAKEFNPRFF)”, the “DMS-derived PSSM value (averaged), position S13” value (prey ATXN2, TLNPNAKEFNPRSF(averaged) over the two overlapping peptides, S = wild type) was 0.01382.
With TLNPNAKEFNPRSFSQ N5F (TLNPFAKEFNPRSFSQ) the “DMS-derived PSSM value, position N5” value [3] was 0.006389.
In the case of “TLNPNAKEFNPRSFSQ S15W (TLNPNAKEFNPRSFWQ)”, the “DMS-derived PSSM value, position S15” value [4] is reported as 0.05986.
In the case of “TLNPNAKEFNPRSFSQ R12W (TLNPNAKEFNPWSFSQ)”, the “DMS-derived PSSM value, position R12” value [5] is reported as 0.01782.
“TLNPNAKEFNPRSF(averaged) T1Q (QLNPNAKEFNPRSF)” was tested, and the “DMS-derived PSSM value (averaged), position T1” value [1] was 0.003845.
In the case of “KSTLNPNAKEFNPRSF N12Y (KSTLNPNAKEFYPRSF)”, the “DMS-derived PSSM value, position N12” value [11] is reported as 0.1026.
KSTLNPNAKEFNPRSF P6H (KSTLNHNAKEFNPRSF) was tested, and the “DMS-derived PSSM value, position P6” value [12] was 0.01713.
With “TLNPNAKEFNPRSF(averaged) K7Y (TLNPNAYEFNPRSF)” the “DMS-derived PSSM value (averaged), position K7” value (prey ATXN2, TLNPNAKEFNPRSF(averaged) over the two overlapping peptides, K = wild type) was 0.2476.
In the case of KSTLNPNAKEFNPRSF K9Y (KSTLNPNAYEFNPRSF), the “DMS-derived PSSM value, position K9” value [7] is reported as 0.02328.
For “KSTLNPNAKEFNPRSF P13H (KSTLNPNAKEFNHRSF)”, the “DMS-derived PSSM value, position P13” value [12] was 0.
With “KSTLNPNAKEFNPRSF P13E (KSTLNPNAKEFNERSF)” the “DMS-derived PSSM value, position P13” value [12] was 0.006076.
In the case of “KSTLNPNAKEFNPRSF F11G (KSTLNPNAKEGNPRSF)”, the “DMS-derived PSSM value, position F11” value [13] is reported as 0.
With “TLNPNAKEFNPRSFSQ P11I (TLNPNAKEFNIRSFSQ)” the “DMS-derived PSSM value, position P11” value [6] was 0.0006115.
In the case of “KSTLNPNAKEFNPRSF F16S (KSTLNPNAKEFNPRSS)”, the “DMS-derived PSSM value, position F16” value [13] is reported as 0.02635.
“TLNPNAKEFNPRSF(averaged) F14L (TLNPNAKEFNPRSL)” was tested, and the “DMS-derived PSSM value (averaged), position F14” value (prey ATXN2, TLNPNAKEFNPRSF(averaged) over the two overlapping peptides, F = wild type) was 0.193.
“TLNPNAKEFNPRSF(averaged) P11H (TLNPNAKEFNHRSF)” was tested, and the “DMS-derived PSSM value (averaged), position P11” value [10] was 0.07852.
For TLNPNAKEFNPRSFSQ E8S (TLNPNAKSFNPRSFSQ), the “DMS-derived PSSM value, position E8” value (prey ATXN2, peptide TLNPNAKEFNPRSFSQ, E = wild type) was 0.09805.
In the case of “KSTLNPNAKEFNPRSF N12K (KSTLNPNAKEFKPRSF)”, the “DMS-derived PSSM value, position N12” value [11] is reported as 0.009595.
“TLNPNAKEFNPRSF(averaged) N5D (TLNPDAKEFNPRSF)” was tested, and the “DMS-derived PSSM value (averaged), position N5” value [2] was 0.03885.
For “TLNPNAKEFNPRSF(averaged) T1V (VLNPNAKEFNPRSF)”, the “DMS-derived PSSM value (averaged), position T1” value [1] was 0.1224.
For “KSTLNPNAKEFNPRSF F16E (KSTLNPNAKEFNPRSE)”, the “DMS-derived PSSM value, position F16” value [13] was 0.01536.
